Measurements from patent US20220315578A1, “BRD9 BIFUNCTIONAL DEGRADERS AND THEIR METHODS OF USE” (NOVARTIS AG, priority 2019, published 2022).

Target: T1, BRD9-GFP (Homo sapiens, UniProt Q9H8M2)
T1 construct: CHYSEL (2A cis-acting hydrolase element) remnant after GFP; mCherry is split off as a separate protein (C); expressed in transfected cells; host or cells: HEK293A cells (Invitrogen R70507), lentiviral transduction with pLenti6-BRD9-GFP-CHYSEL-mCherry, blasticidin selection
T1 sequence (Q9H8M2 1-597): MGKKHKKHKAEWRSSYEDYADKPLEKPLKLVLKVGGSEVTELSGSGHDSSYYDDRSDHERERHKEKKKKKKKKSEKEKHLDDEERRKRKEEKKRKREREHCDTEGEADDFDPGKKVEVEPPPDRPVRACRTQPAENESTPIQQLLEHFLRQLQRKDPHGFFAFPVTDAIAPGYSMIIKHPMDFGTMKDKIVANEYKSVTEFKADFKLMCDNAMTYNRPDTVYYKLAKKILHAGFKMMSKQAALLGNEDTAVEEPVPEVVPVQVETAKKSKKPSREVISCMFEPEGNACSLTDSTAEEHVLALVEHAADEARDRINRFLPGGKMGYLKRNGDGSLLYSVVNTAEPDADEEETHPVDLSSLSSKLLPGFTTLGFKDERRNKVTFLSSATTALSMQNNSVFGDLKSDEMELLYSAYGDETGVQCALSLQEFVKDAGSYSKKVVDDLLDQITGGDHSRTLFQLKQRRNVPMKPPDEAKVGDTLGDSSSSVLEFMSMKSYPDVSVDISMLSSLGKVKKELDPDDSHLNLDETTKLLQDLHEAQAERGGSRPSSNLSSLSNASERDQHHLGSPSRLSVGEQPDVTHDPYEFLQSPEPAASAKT
Experiment: BRD9-GFP protein abundance flow cytometry assay in HEK293A cells
Format: cell-based
Conditions: HEK293A-BRD9-GFP-CHYSEL-mCherry cells; for BRD9 Deg Amax %: 24 h, % protein remaining at the concentration at which maximum degradation is seen; for DC50: 24 h at 37° C., 10-point 1:3 dilution, concentration at which 50% maximal degradation was observed
Outline: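 HEK293A cells stably express bicistronic BRD9-GFP-CHYSEL-mCherry and received 24 h treatment at 37° C with a 10-point, 3-fold dilution series from […], in 0.1% DMSO and duplicate. Median GFP/mCherry ratio of 5,000 single cells by flow cytometry, normalized to mCherry-only cells (0%) and DMSO (100%), gave DC50 and Amax (% protein remaining).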

SMILES | BRD9 Deg Amax % | DC50
CCCCn1cc(-c2ccc(O[C@@H]3CCN(CC4CCN(CCn5cccc(CN6CCC(=O)NC6=O)c5=O)CC4)C[C@H]3F)c(F)c2)c2ccncc2c1=O [Compound E17, 1-((1-(2-(4-(((3R,4R)-4-(4-(2-butyl-1-oxo-1,2-dihydro-2,7-naphthyridin-4-yl)-2-fluorophenoxy)-3-fluoropiperidin-1-yl)methyl)piperidin-1-yl)ethyl)-2-oxo-1,2-dihydropyridin-3-yl)methyl)dihydropyrimidine-2,4(1H,3H)-dione] | 18.79% | 5 nM
Cn1cc(-c2cc(F)c(CN3CCC(OC4CCN(CCn5cccc(CN6CCC(=O)NC6=O)c5=O)CC4)CC3)c(F)c2)c2ccncc2c1=O [Compound E18, 1-((1-(2-(4-((1-(2,6-difluoro-4-(2-methyl-1-oxo-1,2-dihydro-2,7-naphthyridin-4-yl)benzyl)piperidin-4-yl)oxy)piperidin-1-yl)ethyl)-2-oxo-1,2-dihydropyridin-3-yl)methyl)dihydro-pyrimidine-2,4(1H,3H)-dione] | 16.66% | 19 nM
CCCCn1cc(-c2ccc(O[C@H]3CCN(CC4CCN(CCOc5ccc(C)c(N6CCC(=O)NC6=O)c5)CC4)C[C@@H]3F)c(OC)c2)c2ccncc2c1=O [Compound E22, 1-(5-(2-(4-(((3S,4S)-4-(4-(2-butyl-1-oxo-1,2-dihydro-2,7-naphthyridin-4-yl)-2-methoxyphenoxy)-3-fluoropiperidin-1-yl)methyl)piperidin-1-yl)ethoxy)-2-methylphenyl)dihydropyrimidine-2,4(1H,3H)-dione] | 39.25% | 34 nM
CCCn1cc(-c2cc(OC)c(CCN3CCC(OC4CCN(CCn5cccc(CN6CCC(=O)NC6=O)c5=O)CC4)CC3)c(OC)c2)c(C)c(C)c1=O [Compound E23, 1-((1-(2-(4-((1-(4-(4,5-dimethyl-6-oxo-1-propyl-1,6-dihydropyridin-3-yl)-2,6-dimethoxyphenethyl)piperidin-4-yl)oxy)piperidin-1-yl)ethyl)-2-oxo-1,2-dihydropyridin-3-yl)methyl)dihydropyrimidine-2,4(1H,3H)-dione] | 14.27% | 11 nM
COc1cc(-c2cn(C)c(=O)c3cnccc23)cc(F)c1CN1CCC(OC2CCN(CCn3cccc(CN4CCC(=O)NC4=O)c3=O)CC2)CC1 [Compound E24, 1-((1-(2-(4-((1-(2-fluoro-6-methoxy-4-(2-methyl-1-oxo-1,2-dihydro-2,7-naphthyridin-4-yl)benzyl)piperidin-4-yl)oxy)piperidin-1-yl)ethyl)-2-oxo-1,2-dihydropyridin-3-yl)methyl)dihydropyrimidine-2,4(1H,3H)-dione] | 17.08% | 42 nM
CCCCn1cc(-c2ccc(O[C@H]3CCN(CC4CCN(C(=O)COc5ccc(C)c(N6CCC(=O)NC6=O)c5)CC4)C[C@@H]3F)c(OC)c2)c2ccncc2c1=O [Compound E25, 1-(5-(2-(4-(((3S,4S)-4-(4-(2-Butyl-1-oxo-1,2-dihydro-2,7-naphthyridin-4-yl)-2-methoxyphenoxy)-3-fluoropiperidin-1-yl)methyl)piperidin-1-yl)-2-oxoethoxy)-2-methylphenyl)dihydropyrimidine-2,4(1H,3H)-dione] | 13.02% | 1 nM
Cn1cc(-c2cc(F)c(CCN3CCC(OC4CCN(CCn5cccc(CN6CCC(=O)NC6=O)c5=O)CC4)CC3)c(F)c2)c2ccncc2c1=O [Compound E27, 1-((1-(2-(4-((1-(2,6-difluoro-4-(2-methyl-1-oxo-1,2-dihydro-2,7-naphthyridin-4-yl)phenethyl)piperidin-4-yl)oxy)piperidin-1-yl)ethyl)-2-oxo-1,2-dihydropyridin-3-yl)methyl)dihydropyrimidine-2,4(1H,3H)-dione] | 22.28% | 33 nM
CCCCn1cc(-c2ccc(O[C@H]3CCN(CC4CCN(CCn5cccc(CN6CCC(=O)NC6=O)c5=O)CC4)C[C@@H]3F)cc2)c2ccncc2c1=O [Compound E28, 1-((1-(2-(4-(((3S,4S)-4-(4-(2-butyl-1-oxo-1,2-dihydro-2,7-naphthyridin-4-yl)phenoxy)-3-fluoropiperidin-1-yl)methyl)piperidin-1-yl)ethyl)-2-oxo-1,2-dihydropyridin-3-yl)methyl)dihydropyrimidine-2,4(1H,3H)-dione] | 23.20% | 21 nM
CCCCn1cc(-c2ccc(O[C@@H]3CCN(CC4CCN(C(=O)c5ccc(OC)c(N6CCC(=O)NC6=O)c5)CC4)C[C@H]3F)c(F)c2)c2ccncc2c1=O [Compound E29, 1-(5-(4-(((3R,4R)-4-(4-(2-butyl-1-oxo-1,2-dihydro-2,7-naphthyridin-4-yl)-2-fluorophenoxy)-3-fluoropiperidin-1-yl)methyl)piperidine-1-carbonyl)-2-methoxyphenyl)dihydropyrimidine-2,4(1H,3H)-dione] | 19.48% | 1 nM
Cn1cc(-c2cc(F)c(CN3CC[C@@H](OC4CCN(CCn5cccc(CN6CCC(=O)NC6=O)c5=O)CC4)[C@H](F)C3)c(F)c2)c2ccncc2c1=O [Compound E30, 1-((1-(2-(4-(((3R,4R)-1-(2,6-difluoro-4-(2-methyl-1-oxo-1,2-dihydro-2,7-naphthyridin-4-yl)benzyl)-3-fluoropiperidin-4-yl)oxy)piperidin-1-yl)ethyl)-2-oxo-1,2-dihydropyridin-3-yl)methyl)dihydro-pyrimidine-2,4(1H,3H)-dione] | 11.19% | 3 nM
CCCCn1cc(-c2ccc(O[C@H]3CCN(CC4CCN(C(=O)c5ccc(OC)c(N6CCC(=O)NC6=O)c5)CC4)C[C@@H]3F)cc2)c2ccncc2c1=O [Compound E31, 1-(5-(4-(((3S,4S)-4-(4-(2-butyl-1-oxo-1,2-dihydro-2,7-naphthyridin-4-yl)phenoxy)-3-fluoropiperidin-1-yl)methyl)piperidine-1-carbonyl)-2-meth-oxyphenyl)dihydro-pyrimidine-2,4(1H,3H)-dione] | 16.43% | 1 nM
CCCCn1cc(-c2ccc(O[C@H]3CCN(CC4CCN(C(=O)c5ccc(OC)c(N6CCC(=O)NC6=O)c5)CC4)C[C@@H]3F)c(OC)c2)c2ccncc2c1=O [Compound E32, 1-(5-(4-(((3S,4S)-4-(4-(2-Butyl-1-oxo-1,2-dihydro-2,7-naphthyridin-4-yl)-2-methoxyphenoxy)-3-fluoropiperidin-1-yl)methyl)piperidine-1-carbonyl)-2-methoxyphenyl)dihydropyrimidine-2,4(1H,3H)-dione] | 17.58% | 1 nM
CCCCn1cc(-c2cc(F)c(CN3CCC(OC4CCN(C(=O)c5ccc(OC)c(N6CCC(=O)NC6=O)c5)CC4)CC3)c(F)c2)c2ccncc2c1=O [Compound E33, 1-(5-(4-((1-(4-(2-butyl-1-oxo-1,2-dihydro-2,7-naphthyridin-4-yl)-2,6-difluorobenzyl)piperi-din-4-yl)oxy)piperi-dine-1-carbonyl)-2-methoxyphenyl)di-hydro-pyrimidine-2,4(1H,3H)-dione] | 14.29% | 5 nM
CCCCn1cc(-c2ccc(OC3CCN(CC4CCN(C(=O)c5ccc(OC)c(N6CCC(=O)NC6=O)c5)CC4)CC3)c(F)c2)c2ccncc2c1=O [Compound E34, 1-(5-(4-((4-(4-(2-butyl-1-oxo-1,2-dihydro-2,7-naphthyridin-4-yl)-2-fluorophenoxy)piperidin-1-yl)methyl)piperidine-1-carbonyl)-2-methoxyphenyl)dihydropyrimidine-2,4(1H,3H)-dione] | 13.08% | 2 nM
CCCCn1cc(-c2ccc(O[C@H]3CC[C@@H](OC4CCN(CCn5cccc(CN6CCC(=O)NC6=O)c5=O)CC4)CC3)cc2)c2ccncc2c1=O [Compound E35, 1-((1-(2-(4-(((cis)-4-(4-(2-butyl-1-oxo-1,2-dihydro-2,7-naphthyridin-4-yl)phenoxy)cyclohexyl)oxy)piperidin-1-yl)ethyl)-2-oxo-1,2-dihydropyridin-3-yl)methyl)dihydropyrimidine-2,4(1H,3H)-dione] | 15.90% | 6 nM
CCCCn1cc(-c2cc(OC)c(CN3CC[C@@H](OC4CCN(C(=O)c5ccc(OC)c(N6CCC(=O)NC6=O)c5)CC4)[C@H](F)C3)cc2OC)c2ccncc2c1=O [Compound E36, 1-(5-(4-(((3R,4R)-1-(4-(2-butyl-1-oxo-1,2-dihydro-2,7-naphthyridin-4-yl)-2,5-dimethoxybenzyl)-3-fluoropiperidin-4-yl)oxy)piperidine-1-carbonyl)-2-methoxyphenyl)dihydropyrimidine-2,4(1H,3H)-dione] | 12.80% | 6 nM
